Drawing on patent publication US9115152B2, “Alkylated piperazine compounds” (Genentech, Inc., priority 2011, dated 2015), this text covers IC70 and CD69 Hu Blood FACS (IC70) for ten compounds.

This experiment has as its system production of CD69 by B lymphocytes in human whole blood. The experiment is described as follows: CD69 Whole Blood Assay (CD69 Hu Blood FACS). It is filed as cell-based. Particulars: stimulated with goat F(ab')2 anti-human IgM, 20 hours, CD69 positive of CD20 positive cells; for IC70: Lymphocyte; for CD69 Hu Blood FACS (IC70): Table 2, unit inferred. The text has this:
A CD69 Whole Blood Assay can be conducted on Formula I compounds to determine the ability of compounds to inhibit the production of CD69 by B lymphocytes in human whole blood activated by crosslinking surface IgM with goat F(ab′)2 anti-human IgM (Example 907). CD69 is a type II C-type lectin involved in lymphocyte migration and cytokine secretion. CD69 expression represents one of the earliest available indicators of leukocyte activation and its rapid induction occurs through transcriptional activation (Vazquez et al (2009) Jour. of Immunology Published Oct. 19, 2009, doi:10.4049/jimmunol.0900839). Concentration-dependent inhibition of antigen receptor stimulation by selective Btk inhibitors induces cell surface expression of the lymphocyte activation marker CD69 (Honigberg et al (2010) Proc. Natl. Acad. Sci. 107(29):13075-13080). Thus, CD69 inhibition by selective Btk inhibitors may be correlated with therapeutic efficacy of certain B-cell disorders.
Human blood is obtained from healthy volunteers, with the following restrictions: 1 week drug-free, non-smokers. Blood (approximately 20 mls to test 8 compounds) is collected by venipuncture into Vacutainer® (Becton, Dickinson and Co.) tubes with sodium heparin.
Solutions of Formula I compounds at 10 mM in DMSO are diluted 1:10 in 100% DMSO, then are diluted by three-fold serial dilutions in 100% DMSO for a ten point dose-response curve. The compounds are further diluted 1:10 in PBS and then an aliquot of 5.5 μl of each compound is added in duplicate to a 2 ml 96-well plate; 5.5 μl of 10% DMSO in PBS is added as control and no-stimulus wells. Human whole blood—HWB (100 μl) is added to each well. After mixing the plates are incubated at 37° C., 5% CO2, 100% humidity for 30 minutes. Goat F(ab′)2 anti-human IgM (10 μl of a 500 μg/ml solution, 50 μg/ml final) is added to each well (except the no-stimulus wells) with mixing and the plates are incubated for an additional 20 hours. At the end of the 20 hour incubation, samples are incubated with fluorescent labeled antibodies for 30 minutes, at 37° C., 5% CO2, 100% humidity. Include induced control, unstained and single stains for compensation adjustments and initial voltage settings. Samples are then lysed with PharM Lyse™ (BD Biosciences Pharmingen) according to the manufacturer's instructions. Samples are then transferred to a 96 well plate suitable to be run on the BD Biosciences HTS 96 well system on the LSRII machine. Data acquired and Mean Fluorescence Intensity values were obtained using BD Biosciences DIVA Software. Results are initially analyzed by FACS analysis software (Flow Jo).

Regarding `C[C@@H]1CN(C)CCN1c1ccc(Nc2cc(-c3cc(F)cc(N4CCn5c(cc6c5CCCC6)C4=O)c3CO)cn(C)c2=O)nc1` [Compound 109, (R)-2-(3-(5-(5-(2,4-dimethylpiperazin-1-yl)pyridin-2-ylamino)-1-methyl-6-oxo-1,6-dihydropyridin-3-yl)-5-fluoro-2-(hydroxymethyl)phenyl)-3,4,6,7,8,9-hexahydropyrazino[1,2-a]indol-1(2H)-one], the IC70 (as a rule, the concentration needed for an effect of 70%) is 29 nM. As for `C[C@H]1CN(C)CCN1c1ccc(Nc2cc(-c3cc(F)cc(N4CCn5c(cc6c5CCCC6)C4=O)c3CO)cn(C)c2=O)nc1` [Compound 110, (S)-2-(3-(5-(5-(2,4-dimethylpiperazin-1-yl)pyridin-2-ylamino)-1-methyl-6-oxo-1,6-dihydropyridin-3-yl)-5-fluoro-2-(hydroxymethyl)phenyl)-3,4,6,7,8,9-hexahydropyrazino[1,2-a]indol-1(2H)-one], the IC70 came out at 6 nM. Still for that read-out and setting: the same measure for `CN1CCN(c2ccc(Nc3cc(-c4cc(F)cc(N5CCn6c(cc7c6CCCC7)C5=O)c4CO)cn(C)c3=O)nc2)CC1CF` (stereo not shown) [Compound 111, 2-(5-fluoro-3-(5-(5-(3-(fluoromethyl)-4-methylpiperazin-1-yl)pyridin-2-ylamino)-1-methyl-6-oxo-1,6-dihydropyridin-3-yl)-2-(hydroxymethyl)phenyl)-3,4,6,7,8,9-hexahydropyrazino[1,2-a]indol-1(2H)-one]: 92 nM; for `CN1C2COCC1CN(c1ccc(Nc3cc(-c4cc(F)cc(N5CCn6c(cc7c6CCCC7)C5=O)c4CO)cn(C)c3=O)nc1)C2` [Compound 112, 2-(5-fluoro-2-(hydroxymethyl)-3-(1-methyl-5-(5-(9-methyl-7-oxa-3,9-diaza-bicyclo[3.3.1]nonan-3-yl)pyridin-2-ylamino)-6-oxo-1,6-dihydropyridin-3-yl)phenyl)-3,4,6,7,8,9-hexahydropyrazino[1,2-a]indol-1(2H)-one]: 170 nM.

`C[C@@H]1CN(c2ccc(Nc3cc(-c4cc(F)cc(N5CCc6c(cc7n6CCCC7)C5=O)c4CO)cn(C)c3=O)nc2)[C@@H](C)CN1C1COC1` [Compound 126, 2-[3-[5-[[5-[(2S,5R)-2,5-dimethyl-4-(oxetan-3-yl)piperazin-1-yl]-2-pyridyl]amino]-1-methyl-6-oxo-3-pyridyl]-5-fluoro-2-(hydroxymethyl)phenyl]-3,4,6,7,8,9-hexahydropyrido[3,4-b]indolizin-1-one] came in with a CD69 Hu Blood FACS (IC70) of 57.1 nM. In turn, `C[C@H]1CN(C2COC2)CCN1c1ccc(Nc2cc(-c3cc(F)cc(-n4ncc5c(cc6n5CCCC6)c4=O)c3CO)cn(C)c2=O)nc1` [Compound 127, 2-[5-fluoro-2-(hydroxymethyl)-3-[1-methyl-5-[[5-[(2S)-2-methyl-4-(oxetan-3-yl)piperazin-1-yl]-2-pyridyl]amino]-6-oxo-3-pyridyl]phenyl]-6,7,8,9-tetrahydropyridazino[4,5-b]indolizin-1-one] yielded a CD69 Hu Blood FACS (IC70) of 51 nM.

Compound `C[C@H]1CN(C2COC2)CCN1c1ccc(Nc2cc(-c3cc(F)cc(N4CCn5c(cc6c5CC(C)(C)C6)C4=O)c3C(=O)O)cn(C)c2=O)nc1` [Compound 128, 2-(7,7-dimethyl-4-oxo-1,2,6,8-tetrahydrocyclopenta[3,4]pyrrolo[3,5-b]pyrazin-3-yl)-4-fluoro-6-[1-methyl-5-[[5-[(2S)-2-methyl-4-(oxetan-3-yl)piperazin-1-yl]-2-pyridyl]amino]-6-oxo-3-pyridyl]benzoic acid] registered a CD69 Hu Blood FACS (IC70) of 5000 nM. In the case of `CNC(=O)c1c(-c2cc(Nc3ccc(N4CCN(C5COC5)C[C@@H]4C)cn3)c(=O)n(C)c2)cc(F)cc1N1CCn2c(cc3c2CC(C)(C)C3)C1=O` [Compound 129, 2-(7,7-dimethyl-4-oxo-1,2,6,8-tetrahydrocyclopenta[3,4]pyrrolo[3,5-b]pyrazin-3-yl)-4-fluoro-N-methyl-6-[1-methyl-5-[[5-[(2S)-2-methyl-4-(oxetan-3-yl)piperazin-1-yl]-2-pyridyl]amino]-6-oxo-3-pyridyl]benzamide], the CD69 Hu Blood FACS (IC70) turned out to be 472 nM. Still for that read-out and setting: the same measure for `C[C@H]1CN(C2COC2)CCN1c1ccc(Nc2cc(-c3cccc(-n4ncc5c6c(sc5c4=O)CCCC6)c3CO)cn(C)c2=O)nc1` [Compound 130, 3-[2-(hydroxymethyl)-3-[1-methyl-5-[[5-[(2S)-2-methyl-4-(oxetan-3-yl)piperazin-1-yl]-2-pyridyl]amino]-6-oxo-3-pyridyl]phenyl]-6,7,8,9-tetrahydrobenzothiopheno[2,3-d]pyridazin-4-one]: 35.4 nM; for `C[C@H]1CN(C2COC2)CCN1c1ccc(Nc2cc(-c3cc(F)cc(-n4ncc5c6c(sc5c4=O)CC(C)(C)C6)c3CO)cn(C)c2=O)nc1` [Compound 131, 3-[5-fluoro-2-(hydroxymethyl)-3-[1-methyl-5-[[5-[(2S)-2-methyl-4-(oxetan-3-yl)piperazin-1-yl]-2-pyridyl]amino]-6-oxo-3-pyridyl]phenyl]-7,7-dimethyl-6,8-dihydrocyclopenta[3,4]thieno[1,3-d]pyridazin-4-one]: 34.9 nM.
